Reference: patent US20060089352A1, “Substituted thiazines as material protecting agents” (priority 2002, published 2006)

Assays:
Type in all cases: cell-based
Penicillium brevicaule = test: Minimum inhibitory concentration (MIC) on malt extract agar; conditions: 2 weeks incubation at 28° C., 60 to 70% relative atmospheric humidity
Protocol: (§1) The MIC was determined after 2 weeks of incubation at 28° C. and 60 to 70% relative atmospheric humidity. The MIC is the lowest concentration of active compound at which there is no colonization by the microbial species used; it is indicated in Table 2.

Aspergillus niger = test: as above; conditions: 2 weeks incubation at 28° C., 60 to 70% relative atmospheric humidity
Protocol: as §1

Chaetomium globosum = test: as above; conditions: 2 weeks incubation at 28° C., 60 to 70% relative atmospheric humidity
Protocol: as §1

[1] = system: mold fungi (Alternaria tenuis, Aspergillus flavus, Aspergillus niger, Aspergillus ustus, Cindosporum herbarum, Paecilomyces variotii, Penicillium citrium …); test: Test of dispersion coatings for resistance to mold; conditions: coatings according to recipe A containing 1.5% (based on solids) of compound; even after rinsing out and wind tunnel exposure; 2-3 weeks storage, 29±1° C., 80-90% rel. humidity
Protocol: To test dispersion coatings for resistance to mold, the following procedure was adopted:
The paint to be tested was applied to both sides of a suitable base. To obtain results which are close to practice, some of the test specimens were rinsed out with running water (24 h, 20° C.) before the test for mold resistance; others were treated with a current of warm fresh air (7 days, 40° C.).
The samples prepared in this way were then placed on an agar nutrient medium, and both samples and nutrient medium were contaminated with fungal spores. After 2-3 weeks storage (29±1° C., 80-90% rel. atmospheric humidity), the samples were compared.
The coating is considered to be permanently mold-resistant if the sample remains free from fungus or at most a slight border infestation can be detected.
For the contamination, fungal spores of the following mold fungi were used, which are known as paint destroyers or are frequently encountered on coatings: • Alternaria tenuis • Aspergillus flavus • Aspergillus niger • Aspergillus ustus • Cindosporum herbarum • Paecilomyces variotii • Penicillium citrium • Aureobasidium pullulans • Stachybotrys chartarum
Recipe A: Exterior dispersion paint based on Acroal 290 D (styrene acrylate)

Row | Structure (SMILES) | Minimum inhibitory concentrations Penicillium brevicaule (Penicillium brevicaule) | Minimum inhibitory concentrations Aspergillus niger (Aspergillus niger) | Minimum inhibitory concentrations Chaetomium globosum (Chaetomium globosum) | Mold resistance of coating [1]
1 | CC1CN=C(Sc2ccccc2)SC1 (centres unmarked) [Example 11] | <50 ppm | <50 ppm | <50 ppm | 
2 | COc1ccc(SC2=NCC(C)CS2)cc1 (centres unmarked) [Example 1] | <100 ppm | <200 ppm | <100 ppm | 
3 | Cc1ccc(SC2=NC3CCCC3CS2)cc1 (centres unmarked) [Example 82] |  |  | 100 ppm | 
4 | COc1cccc(SC2=NCCC(C)S2)c1 (centres unmarked) [Example 67] | <100 ppm | <200 ppm | <100 ppm | 
5 | c1csc(SC2=NC3CCCC3CS2)c1 (centres unmarked) [Example 79] | 100 ppm |  | <100 ppm | 
6 | c1ccc(SC2=NC3CCCC3CS2)cc1 (centres unmarked) [Example 81] | 200 ppm |  | <100 ppm | 
7 | CC1CN=C(Sc2ccc(Cl)cc2)SC1 (centres unmarked) [Example 6] | 20 ppm | 50 ppm | 20 ppm | 
8 | CC1CCN=C(Sc2ccccc2)S1 (centres unmarked) [Example 62] | <50 ppm | <100 ppm | <100 ppm | 
9 | CC1(C)CN=C(Sc2cccs2)SC1 [Example 45] | <50 ppm | <200 ppm | <50 ppm | 
10 | CC1(C)CN=C(Sc2cccc(F)c2)SC1 [Example 51] | <200 ppm | 200 ppm | <200 ppm | 
11 | COc1ccc(SC2=NC3CCCCC3CS2)cc1 (centres unmarked) [Example 4] |  |  | 100 ppm | 
12 | CC1(C)CCSC(Sc2ccc(Cl)cc2)=N1 [Example 61] |  |  | 200 ppm | 
13 | COc1ccc(SC2=NCC(C)(C)CS2)cc1 [Example 47] |  |  |  | mold resistant
